Results: ChEMBL document CHEMBL1139353, “Discovery of a new class of potential multifunctional atypical antipsychotic agents targeting dopamine D3 and serotonin 5-HT1A and 5-HT2A receptors: design, synthesis, and effects on behavior” (J Med Chem, 2009)
Activity calls are given as the source filed them. The rule behind the calls is not given here.

Assays:
Mus musculus [1] = test: Sedative activity in NMRI mouse assessed as reduction in spontaneous locomotor activity at 10 mg/kg administered 30 mins prior to testing relative to control; assay type: organism-based; set-up: dose 10 mg/kg; conditions: in vivo, 0.5 h
Mus musculus [2] = test: Antipsychotic activity in NMRI mouse assessed as reduction in methamphetamine-induced locomotor activity at 10 mg/kg administered 30 mins prior to testing measured for 60 mins relative to control; assay type: functional, organism-based; set-up: dose 10 mg/kg
Mus musculus [3] = test: Antipsychotic activity in NMRI mouse assessed as reduction in phencyclidine-induced locomotor activity at 3 mg/kg administered 30 mins prior to testing measured for 60 mins; assay type: functional, organism-based; set-up: dose 3 mg/kg
Mus musculus [4] = test: Antipsychotic activity in NMRI mouse assessed as reduction in phencyclidine-induced locomotor activity at 10 mg/kg administered 30 mins prior to testing measured for 60 mins; assay type: functional, organism-based; set-up: dose 10 mg/kg
Rattus norvegicus [5] = test: Induction of c-Fos protein expression in rat nucleus accumbens core subregion at 3 mg/kg, ip after 1 hr by light microscopy; assay type: functional, organism-based; set-up: dose 3 mg/kg
Rattus norvegicus [6] = test: Induction of c-Fos protein expression in rat nucleus accumbens core subregion at 10 mg/kg, ip after 1 hr by light microscopy; assay type: functional, organism-based; set-up: dose 10 mg/kg
Rattus norvegicus [7] = test: Induction of c-Fos protein expression in rat dorsolateral striatum at 30 mg/kg, ip after 1 hr by light microscopy; assay type: functional, organism-based; set-up: dose 30 mg/kg
Rattus norvegicus [8] = test: Induction of c-Fos protein expression in ip dosed rat dorsolateral striatum after 1 hr by light microscopy; assay type: functional, organism-based
Histamine H1 receptor = Histamine H1 receptor (Cavia porcellus, UniProt P31389); test: Displacement of [3H]pyrilamine from histamine H1 receptor in guinea pig cerebellum; assay type: tissue-based
[9] = molecular target: T1, Adrenergic receptor alpha-2 (Rattus norvegicus, UniProt P22086+P19328+P22909); test: Displacement of [3H]clonidine from adrenergic alpha2 receptor in rat cerebral cortex by filtration technique; assay type: tissue-based
T1 sequence (P22086 whole entry): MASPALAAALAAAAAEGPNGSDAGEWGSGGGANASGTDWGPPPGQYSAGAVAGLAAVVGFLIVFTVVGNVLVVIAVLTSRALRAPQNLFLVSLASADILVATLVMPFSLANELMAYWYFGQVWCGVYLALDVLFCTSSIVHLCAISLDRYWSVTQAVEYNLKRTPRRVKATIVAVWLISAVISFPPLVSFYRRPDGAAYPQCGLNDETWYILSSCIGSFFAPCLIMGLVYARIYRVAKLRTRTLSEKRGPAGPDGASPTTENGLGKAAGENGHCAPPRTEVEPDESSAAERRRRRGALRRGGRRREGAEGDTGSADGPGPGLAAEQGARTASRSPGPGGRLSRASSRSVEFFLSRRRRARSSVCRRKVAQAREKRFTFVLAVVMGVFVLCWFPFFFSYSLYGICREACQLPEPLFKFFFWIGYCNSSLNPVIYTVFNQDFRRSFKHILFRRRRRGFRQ
T1 sequence (P19328 whole entry): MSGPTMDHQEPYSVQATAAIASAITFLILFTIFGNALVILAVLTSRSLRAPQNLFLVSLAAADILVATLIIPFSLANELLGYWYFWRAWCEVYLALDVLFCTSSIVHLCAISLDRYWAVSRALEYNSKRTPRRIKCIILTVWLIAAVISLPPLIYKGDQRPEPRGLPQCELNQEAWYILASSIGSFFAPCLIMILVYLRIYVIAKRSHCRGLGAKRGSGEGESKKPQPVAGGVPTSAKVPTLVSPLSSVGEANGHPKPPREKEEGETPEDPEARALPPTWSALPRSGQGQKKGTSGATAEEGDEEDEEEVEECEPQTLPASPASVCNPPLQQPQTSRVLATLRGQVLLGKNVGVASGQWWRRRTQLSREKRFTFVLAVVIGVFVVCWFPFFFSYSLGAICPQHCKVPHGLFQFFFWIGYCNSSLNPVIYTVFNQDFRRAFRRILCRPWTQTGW
T1 sequence (P22909 whole entry): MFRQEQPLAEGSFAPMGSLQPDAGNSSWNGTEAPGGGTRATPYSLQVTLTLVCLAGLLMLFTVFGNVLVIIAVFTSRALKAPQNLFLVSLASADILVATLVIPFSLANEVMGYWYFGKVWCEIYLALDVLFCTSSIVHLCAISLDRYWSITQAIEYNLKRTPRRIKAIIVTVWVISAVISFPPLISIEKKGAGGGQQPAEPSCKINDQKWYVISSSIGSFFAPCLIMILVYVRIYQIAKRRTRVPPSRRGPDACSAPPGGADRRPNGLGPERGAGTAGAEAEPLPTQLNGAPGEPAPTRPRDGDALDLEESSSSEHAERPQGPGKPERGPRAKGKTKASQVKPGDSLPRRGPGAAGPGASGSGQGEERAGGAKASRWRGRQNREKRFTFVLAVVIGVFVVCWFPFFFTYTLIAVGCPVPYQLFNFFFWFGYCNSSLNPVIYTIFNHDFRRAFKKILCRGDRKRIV

D(3) dopamine receptor [10] = molecular target: T2, D(3) dopamine receptor (Homo sapiens, UniProt P35462); test: Antagonist activity at human dopamine D3 receptor expressed in CHO-K1 cells by [35S]GTPgammaS binding assay; assay type: functional, cell-based
[11] = molecular target: T3, 5-hydroxytryptamine receptor 2A (Rattus norvegicus, UniProt P14842); test: Intrinsic activity at 5HT2A receptor in Wistar rat aorta; assay type: tissue-based
D(1A) dopamine receptor = D(1A) dopamine receptor (Rattus norvegicus, UniProt P18901)
Description: Displacement of [3H]SCH23390 from dopamine D1 receptor in CRL:CD(SD)BR-COBS rat striatum by scintillation spectrometry

[12] = molecular target: T3, 5-hydroxytryptamine receptor 2A
Description: Displacement of [3H]ketanserin from 5HT2A receptor in CRL:CD(SD)BR-COBS rat cortex by scintillation spectrometry

[13] = molecular target: Voltage-gated inwardly rectifying potassium channel KCNH2 (Homo sapiens, UniProt Q12809)
Description: Binding affinity to human ERG expressed in HEK293 cells by whole cell patch clamp method

Mus musculus [14] = species: Mus musculus; conditions: in vivo, 0.5 h
Description: Sedative activity in NMRI mouse assessed as reduction in spontaneous locomotor activity administered 30 mins prior to testing

Mus musculus [15] = species: Mus musculus; conditions: in vivo, sc, 1 h
Description: Toxicity in sc dosed NMRI mouse assessed as cataleptogenic potential administered 30 mins prior to testing measured every 15 mins for 60 mins by horizontal bar test

D(3) dopamine receptor [16] = molecular target: T2, D(3) dopamine receptor; test: biochemical
Description: Displacement of [3H]7OH-DPAT from dopamine D3 receptor expressed in Sf9 cells by scintillation spectrometry

[17] = molecular target: T4, 5-hydroxytryptamine receptor 1A (Rattus norvegicus, UniProt P19327); test: biochemical
T4 sequence (P19327 whole entry): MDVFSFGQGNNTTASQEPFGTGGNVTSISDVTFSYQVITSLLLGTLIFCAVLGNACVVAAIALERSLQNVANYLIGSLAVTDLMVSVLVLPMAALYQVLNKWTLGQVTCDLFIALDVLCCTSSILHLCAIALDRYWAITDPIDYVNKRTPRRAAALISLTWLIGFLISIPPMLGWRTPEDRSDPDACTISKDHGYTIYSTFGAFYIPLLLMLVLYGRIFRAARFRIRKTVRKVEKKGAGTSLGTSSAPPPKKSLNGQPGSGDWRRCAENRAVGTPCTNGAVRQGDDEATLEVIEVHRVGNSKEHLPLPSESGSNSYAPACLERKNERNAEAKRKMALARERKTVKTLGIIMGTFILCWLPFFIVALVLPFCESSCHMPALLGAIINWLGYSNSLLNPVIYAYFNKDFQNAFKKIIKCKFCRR
Description: Displacement of [3H]8OH-DPAT from 5HT1A receptor in CRL:CD(SD)BR-COBS rat hippocampus by scintillation spectrometry

Mus musculus [18] = species: Mus musculus; test: animal or person; conditions: NMRI
Description: Antipsychotic activity in NMRI mouse assessed as reduction in methamphetamine-induced locomotor activity administered 30 mins prior to testing measured for 60 mins

Mus musculus [19] = species: Mus musculus; test: animal or person; conditions: NMRI; remark: listed apart in the source
Description: Antipsychotic activity in NMRI mouse assessed as reduction in phencyclidine-induced locomotor activity administered 30 mins prior to testing measured for 60 mins

T3 sequence (P14842 whole entry): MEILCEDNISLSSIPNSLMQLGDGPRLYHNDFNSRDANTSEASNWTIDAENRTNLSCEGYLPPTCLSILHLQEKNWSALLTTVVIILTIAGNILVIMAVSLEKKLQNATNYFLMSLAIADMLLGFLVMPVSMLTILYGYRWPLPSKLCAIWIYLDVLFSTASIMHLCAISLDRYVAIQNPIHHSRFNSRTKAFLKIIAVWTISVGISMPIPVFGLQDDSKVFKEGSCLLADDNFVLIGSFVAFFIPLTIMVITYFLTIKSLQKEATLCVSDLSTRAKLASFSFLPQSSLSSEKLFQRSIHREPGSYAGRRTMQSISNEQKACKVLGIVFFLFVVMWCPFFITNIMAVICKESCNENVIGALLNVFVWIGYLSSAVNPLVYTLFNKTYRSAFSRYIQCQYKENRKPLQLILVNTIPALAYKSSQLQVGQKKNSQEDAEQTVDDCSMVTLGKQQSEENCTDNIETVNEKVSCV
T2 sequence (P35462 whole entry): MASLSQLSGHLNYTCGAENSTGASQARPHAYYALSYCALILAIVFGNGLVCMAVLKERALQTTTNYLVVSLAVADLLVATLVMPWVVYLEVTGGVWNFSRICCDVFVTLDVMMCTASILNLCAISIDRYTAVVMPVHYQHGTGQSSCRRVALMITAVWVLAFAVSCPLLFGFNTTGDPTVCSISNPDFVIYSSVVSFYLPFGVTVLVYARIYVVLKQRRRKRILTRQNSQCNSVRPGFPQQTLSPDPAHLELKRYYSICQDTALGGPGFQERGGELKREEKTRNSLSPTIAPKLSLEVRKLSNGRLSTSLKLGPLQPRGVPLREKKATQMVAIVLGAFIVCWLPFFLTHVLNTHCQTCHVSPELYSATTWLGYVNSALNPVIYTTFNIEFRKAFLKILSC
Chain of Histamine H1 receptor (P31389 whole entry): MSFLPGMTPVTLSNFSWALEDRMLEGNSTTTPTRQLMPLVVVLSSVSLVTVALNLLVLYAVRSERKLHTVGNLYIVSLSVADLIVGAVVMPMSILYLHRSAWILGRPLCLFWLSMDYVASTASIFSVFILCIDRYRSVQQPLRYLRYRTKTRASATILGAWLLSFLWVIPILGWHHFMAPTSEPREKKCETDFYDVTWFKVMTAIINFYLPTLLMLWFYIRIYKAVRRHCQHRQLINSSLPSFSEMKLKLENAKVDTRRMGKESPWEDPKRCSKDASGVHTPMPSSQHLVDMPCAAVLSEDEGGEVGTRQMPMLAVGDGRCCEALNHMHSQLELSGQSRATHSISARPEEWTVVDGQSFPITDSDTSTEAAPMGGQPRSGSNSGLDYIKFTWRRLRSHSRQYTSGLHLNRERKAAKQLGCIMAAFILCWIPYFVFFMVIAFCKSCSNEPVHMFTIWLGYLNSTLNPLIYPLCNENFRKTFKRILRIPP
Chain of D(1A) dopamine receptor (P18901 whole entry): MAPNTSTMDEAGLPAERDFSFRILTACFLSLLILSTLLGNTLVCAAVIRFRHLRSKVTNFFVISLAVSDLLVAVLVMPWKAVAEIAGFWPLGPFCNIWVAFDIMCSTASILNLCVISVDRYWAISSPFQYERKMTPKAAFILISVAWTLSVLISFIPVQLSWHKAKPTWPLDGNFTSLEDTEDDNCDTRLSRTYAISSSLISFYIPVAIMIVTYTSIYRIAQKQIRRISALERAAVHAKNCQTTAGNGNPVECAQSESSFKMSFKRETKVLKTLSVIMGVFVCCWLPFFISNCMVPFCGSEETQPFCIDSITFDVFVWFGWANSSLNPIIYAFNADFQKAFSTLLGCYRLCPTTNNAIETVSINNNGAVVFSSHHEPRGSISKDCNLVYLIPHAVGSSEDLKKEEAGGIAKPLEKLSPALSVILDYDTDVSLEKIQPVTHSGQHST
Chain of Voltage-gated inwardly rectifying potassium channel KCNH2 (Q12809 whole entry): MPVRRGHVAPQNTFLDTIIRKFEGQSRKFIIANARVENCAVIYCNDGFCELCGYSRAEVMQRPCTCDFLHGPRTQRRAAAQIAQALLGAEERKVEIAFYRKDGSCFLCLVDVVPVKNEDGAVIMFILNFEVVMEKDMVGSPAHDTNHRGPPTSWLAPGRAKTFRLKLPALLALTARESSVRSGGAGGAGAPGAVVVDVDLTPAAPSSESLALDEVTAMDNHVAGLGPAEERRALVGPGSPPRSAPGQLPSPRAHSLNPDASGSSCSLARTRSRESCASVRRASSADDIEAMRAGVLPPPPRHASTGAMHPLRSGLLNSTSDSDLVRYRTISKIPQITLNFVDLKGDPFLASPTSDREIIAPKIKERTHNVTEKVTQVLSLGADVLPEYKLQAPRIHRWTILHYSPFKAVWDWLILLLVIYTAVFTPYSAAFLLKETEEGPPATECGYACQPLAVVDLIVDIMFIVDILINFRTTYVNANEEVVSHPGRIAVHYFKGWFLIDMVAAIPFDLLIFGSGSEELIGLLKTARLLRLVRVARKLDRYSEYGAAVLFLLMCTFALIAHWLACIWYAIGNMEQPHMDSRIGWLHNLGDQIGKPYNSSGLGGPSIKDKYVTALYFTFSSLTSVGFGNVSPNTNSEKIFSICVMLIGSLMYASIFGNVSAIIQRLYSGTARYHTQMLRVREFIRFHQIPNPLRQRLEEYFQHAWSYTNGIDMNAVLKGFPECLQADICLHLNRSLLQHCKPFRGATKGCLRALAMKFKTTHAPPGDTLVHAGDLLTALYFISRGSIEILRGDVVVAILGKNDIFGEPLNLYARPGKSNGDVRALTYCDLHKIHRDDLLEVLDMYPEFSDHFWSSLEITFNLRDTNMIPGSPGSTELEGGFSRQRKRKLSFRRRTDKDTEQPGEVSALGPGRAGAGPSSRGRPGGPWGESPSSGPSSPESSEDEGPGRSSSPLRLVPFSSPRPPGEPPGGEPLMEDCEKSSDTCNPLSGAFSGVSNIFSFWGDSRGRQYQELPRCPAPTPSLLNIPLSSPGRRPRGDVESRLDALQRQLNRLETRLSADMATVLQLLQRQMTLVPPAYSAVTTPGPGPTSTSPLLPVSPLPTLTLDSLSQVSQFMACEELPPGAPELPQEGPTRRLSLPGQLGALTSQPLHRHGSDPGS

- Ki (Histamine H1 receptor): 15 nM
- Ki [9]: 43 nM
- IC50 (D(3) dopamine receptor [10]): 143 nM
- IC50 [11]: 230 nM
- Ki (D(1A) dopamine receptor): 3290 nM
- Ki [12]: 15.3 nM
- ED50 (Mus musculus [14]): 5.5 mg/kg
- ED50 (Mus musculus [15]): > 30 mg/kg
- Ki (D(3) dopamine receptor [16]): 4.5 nM
- Ki [17]: 11.9 nM
Structure (SMILES): Cc1cccc(N2CCN(CCCCNC(=O)c3cc4ccccc4o3)CC2)c1
- Activity (Mus musculus [1]): Toxic
- Activity (Mus musculus [2]): Active
- Activity (Mus musculus [3]): Active
- Activity (Mus musculus [4]): Active
- Activity (Rattus norvegicus [5]): inactive
- Activity (Rattus norvegicus [6]): Active
- Activity (Rattus norvegicus [7]): Active
- Activity (Rattus norvegicus [8]): Dose-dependent effect
- Ki [13]: 930 nM
- ED50 (Mus musculus [18]): 2.1 mg/kg
- ED50 (Mus musculus [19]): 2.6 mg/kg
